Laboratory results: PubChem BioAssay AID1918991 (Molecular Pharmacology Branch, DTP, NCI, 2023)

System: 186277-243-T-J2-PDC complex spheroid growth
Assay: Anticancer human tumor 186277-243-T-J2-PDC patient-derived colon adenocarcinoma cell line growth inhibition [AhR]
Conditions: for IC50: curve of first compound; for viability, T/C: stronger effect = lower value
Text: Multicellular complex tumor spheroid response to aryl hydrocarbon receptor antagonists in combination with a variety of drugs and investigational agents in selected tumor cell lines
The current study was undertaken to assess response to aryl hydrocarbon receptor antagonists in combination with standard-of-care drugs and investigational agents in solid tumor complex spheroid models. Complex spheroids include a stromal component modeled by human endothelial cells (HUVEC) and fibroblasts modeled by human mesenchymal stem cells (MSCs). The concentration ranges selected for each drug and investigational agent were based upon clinically achievable concentrations if the clinical Cmax of the agent was known.
Compounds. The drugs and investigational agents: BAY 2416964 (NSC825713), GNF351 (NSC835774), CH-223191 (NSC835775), CPI-455 (NSC825282), aza-TdCyd (NSC777586), decitabine (NSC127716), belinostat (NSC758774), entinostat (NSC756642), pevonedistat (NSC761192), tazemetostat (NSC777109), talazoparib (NSC765396), olaparib (NSC753686), selinexor (NSC780203), nedisertib (M3814, NSC802822), bortezomib (NSC756655), venetoclax (NSC766270), doxorubicin (NSC123127), elimusertib (BAY189344, NSC800525), ceralasertib (AZD6738, NSC777638), TAK-243 (NSC785004), alisertib (NSC759677), etoposide (NSC141540), topotecan (NSC609699), eribulin (NSC707389), gemcitabine (NSC613327), carboplatin (NSC241240), cisplatin (NSC119875), and SN-38 (NSC673596) were obtained from the National Cancer Institute (NCI) Developmental Therapeutics Program Chemical Repository (32). The FDA-approved anticancer drug set is available from the Developmental Therapeutics Program at https://dtp.cancer.gov/organization/dscb/obtaining/available plates.htm. […] The stock solutions were prepared in dimethyl sulfoxide (DMSO, Sigma-Aldrich, St. Louis, MO, cat. D2650), except for the platinum compounds which were prepared in saline (Quality Biological, Gaithersburg, MD, cat. 114-055-101), at 800-fold the tested concentration and stored at -70 degrees C prior to their use. All drugs and investigational agents were tested over a range starting from a high concentration at or near the clinical Cmax and decreasing in half-log increments. If the clinical Cmax for an agent had not been determined, the highest concentration tested was 10 microM (Table 1).
Cell Culture. All cells were maintained in an incubator at 37 degrees C and 5% CO2 with 95% humidity. The PDC lines were cultured according to standard operating procedures established by the NCI PDMR (https://pdmr.cancer.gov). Briefly, all PDCs were thawed and cultured in Matrigel-coated flasks prepared with a working solution of 1X Ham's F-12 nutrient mix, without supplementation (Invitrogen, Waltham, MA, cat. 11765054), 100 U/mL penicillin-streptomycin (Invitrogen, cat. 15140122), and 2.5% Matrigel (Corning Inc., Corning, NY, cat. 354248) for the first three passages. All PDCs were cultured in complete DMEM/F-12 media containing advanced DMEM/F-12 (Invitrogen, cat. 12634028), 4.9% defined fetal bovine serum, heat inactivated (HyClone Laboratories Inc., Logan, UT, cat. SH30070.03HI), 389 ng/mL hydrocortisone (Sigma-Aldrich, cat. H4001), 9.7 ng/mL human EGF recombinant protein (Invitrogen, cat. PHG0313), 23.4 microg/mL adenine (Sigma-Aldrich, cat. A2786), 97.3 U/mL penicillin-streptomycin (Invitrogen, cat. 15140122), 1.9 mM L-glutamine (Invitrogen, cat. 25030081), and 9.7 microM Y-27632 dihydrochloride (Tocris Bioscience, Bristol, United Kingdom, cat. 1254). The PDCs were cultured in complete DMEM/F12 media without 10 microM Y-27632 dihydrochloride for at least two passages prior to the screen. The established cell lines NCI-H1341 and […] were cultured in DMEM/F-12, HEPES (Invitrogen, cat. 11330032), 5% defined fetal bovine serum (HyClone Laboratories Inc., cat. SH30070.03), ITS premix universal culture supplement [insulin (5 microg/mL), transferrin (5 microg/mL), and selenious acid (5 ng/mL)] […]

[1] = second compound 0.1 µM, first compound 0.0316 µM
[2] = second compound 0.1 µM, first compound 0.1 µM
[3] = second compound 0.316 µM, first compound 0.0316 µM
[4] = second compound 0.316 µM, first compound 0.1 µM
[5] = second compound 1 µM, first compound 0.0316 µM
[6] = second compound 1 µM, first compound 0.1 µM
[7] = second compound 3.16 µM, first compound 0.0316 µM
[8] = second compound 3.16 µM, first compound 0.1 µM
[9] = second compound 10 µM, first compound 0.0316 µM
[10] = second compound 10 µM, first compound 0.1 µM
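Note: spheroids exposed to compounds for seven days before the viability read.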
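Throughout, for viability, T/C: luminescent signal used as a stand-in for viable cell amount; 100% = DMSO vehicle control wells.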

Question: Which IC50 (second compound 0.1 µM) does the source give for `O=C(C=Cc1cccc(S(=O)(=O)Nc2ccccc2)c1)NO` + Cc1cncc(-c2nc(NCCc3c[nH]c4ccccc34)c3ncn(C(C)C)c3n2)c1 here?
Answer: 955 nM

Question: What about the IC50 (second compound 0.316 µM) of the same compound?
Answer: 832 nM

Question: And the IC50 (second compound 1 µM)?
Answer: 818 nM

Question: And the IC50 (second compound 3.16 µM)?
Answer: 756 nM

Question: What about the IC50 (second compound 10 µM) of the same compound?
Answer: 168 nM

Question: What about the viability, T/C [1] of the same compound?
Answer: 98.9%

Question: What about the viability, T/C [2] of the same compound?
Answer: 89.6%

Question: What about the viability, T/C (second compound 0.1 µM, first compound 0.316 µM) of the same compound?
Answer: 94%

Question: And the viability, T/C (second compound 0.1 µM, first compound 1 µM)?
Answer: 47.9%

Question: What about the viability, T/C (second compound 0.1 µM, first compound 3.16 µM) of the same compound?
Answer: 8.19%

Question: What about the viability, T/C (second compound 0.1 µM, first compound 10 µM) of the same compound?
Answer: 2.59%

Question: What about the viability, T/C [3] of the same compound?
Answer: 92.1%

Question: And the viability, T/C [4]?
Answer: 89.1%

Question: What about the viability, T/C (second compound 0.316 µM, first compound 0.316 µM) of the same compound?
Answer: 94.8%

Question: What about the viability, T/C (second compound 0.316 µM, first compound 1 µM) of the same compound?
Answer: 42%

Question: What about the viability, T/C (second compound 0.316 µM, first compound 3.16 µM) of the same compound?
Answer: 7.8%

Question: What about the viability, T/C (second compound 0.316 µM, first compound 10 µM) of the same compound?
Answer: 2.18%

Question: What about the viability, T/C [5] of the same compound?
Answer: 105%

Question: What about the viability, T/C [6] of the same compound?
Answer: 95.7%

Question: What about the viability, T/C (second compound 1 µM, first compound 0.316 µM) of the same compound?
Answer: 86.8%

Question: And the viability, T/C (second compound 1 µM, first compound 1 µM)?
Answer: 42.2%

Question: And the viability, T/C (second compound 1 µM, first compound 3.16 µM)?
Answer: 9.76%

Question: And the viability, T/C (second compound 1 µM, first compound 10 µM)?
Answer: 2.85%

Question: What about the viability, T/C [7] of the same compound?
Answer: 106%

Question: What about the viability, T/C [8] of the same compound?
Answer: 103%

Question: And the viability, T/C (second compound 3.16 µM, first compound 0.316 µM)?
Answer: 111%

Question: What about the viability, T/C (second compound 3.16 µM, first compound 1 µM) of the same compound?
Answer: 31.8%

Question: What about the viability, T/C (second compound 3.16 µM, first compound 3.16 µM) of the same compound?
Answer: 10.6%

Question: And the viability, T/C (second compound 3.16 µM, first compound 10 µM)?
Answer: 3.82%

Question: And the viability, T/C [9]?
Answer: 76.9%

Question: And the viability, T/C [10]?
Answer: 67.9%

Question: What about the viability, T/C (second compound 10 µM, first compound 0.316 µM) of the same compound?
Answer: 28.2%

Question: And the viability, T/C (second compound 10 µM, first compound 1 µM)?
Answer: 10.7%

Question: And the viability, T/C (second compound 10 µM, first compound 3.16 µM)?
Answer: 6.37%

Question: What about the viability, T/C (second compound 10 µM, first compound 10 µM) of the same compound?
Answer: 3.77%

Question: Which IC50 (second compound 0.1 µM) does the source give for `CC[C@@]1(O)C(=O)OCc2c1cc1n(c2=O)Cc2cc3c(CN(C)C)c(O)ccc3nc2-1` + Cc1ccccc1N=Nc1ccc(NC(=O)c2ccnn2C)c(C)c1 here?
Answer: > 100 nM

Question: And the IC50 (second compound 0.316 µM)?
Answer: > 100 nM

Question: What about the IC50 (second compound 1 µM) of the same compound?
Answer: > 100 nM

Question: And the IC50 (second compound 3.16 µM)?
Answer: > 100 nM

Question: And the IC50 (second compound 10 µM)?
Answer: > 100 nM

Question: What about the viability, T/C (second compound 0.1 µM, first compound 0.000316 µM) of the same compound?
Answer: 97.7%

Question: What about the viability, T/C (second compound 0.1 µM, first compound 0.001 µM) of the same compound?
Answer: 113%

Question: What about the viability, T/C (second compound 0.1 µM, first compound 0.00316 µM) of the same compound?
Answer: 107%

Question: What about the viability, T/C (second compound 0.1 µM, first compound 0.01 µM) of the same compound?
Answer: 133%

Question: And the viability, T/C [1]?
Answer: 119%

Question: What about the viability, T/C [2] of the same compound?
Answer: 113%

Question: What about the viability, T/C (second compound 0.316 µM, first compound 0.000316 µM) of the same compound?
Answer: 113%

Question: And the viability, T/C (second compound 0.316 µM, first compound 0.001 µM)?
Answer: 101%

Question: And the viability, T/C (second compound 0.316 µM, first compound 0.00316 µM)?
Answer: 113%

Question: What about the viability, T/C (second compound 0.316 µM, first compound 0.01 µM) of the same compound?
Answer: 115%

Question: And the viability, T/C [3]?
Answer: 114%

Question: And the viability, T/C [4]?
Answer: 105%

Question: What about the viability, T/C (second compound 1 µM, first compound 0.000316 µM) of the same compound?
Answer: 97.8%

Question: And the viability, T/C (second compound 1 µM, first compound 0.001 µM)?
Answer: 103%

Question: And the viability, T/C (second compound 1 µM, first compound 0.00316 µM)?
Answer: 110%

Question: What about the viability, T/C (second compound 1 µM, first compound 0.01 µM) of the same compound?
Answer: 123%

Question: What about the viability, T/C [5] of the same compound?
Answer: 116%

Question: What about the viability, T/C [6] of the same compound?
Answer: 119%

Question: What about the viability, T/C (second compound 3.16 µM, first compound 0.000316 µM) of the same compound?
Answer: 94.9%

Question: And the viability, T/C (second compound 3.16 µM, first compound 0.001 µM)?
Answer: 92.9%

Question: What about the viability, T/C (second compound 3.16 µM, first compound 0.00316 µM) of the same compound?
Answer: 116%

Question: And the viability, T/C (second compound 3.16 µM, first compound 0.01 µM)?
Answer: 135%

Question: What about the viability, T/C [7] of the same compound?
Answer: 107%

Question: And the viability, T/C [8]?
Answer: 104%

Question: What about the viability, T/C (second compound 10 µM, first compound 0.000316 µM) of the same compound?
Answer: 81.8%

Question: And the viability, T/C (second compound 10 µM, first compound 0.001 µM)?
Answer: 92.2%

Question: What about the viability, T/C (second compound 10 µM, first compound 0.00316 µM) of the same compound?
Answer: 98.1%

Question: What about the viability, T/C (second compound 10 µM, first compound 0.01 µM) of the same compound?
Answer: 117%

Question: And the viability, T/C [9]?
Answer: 90.5%

Question: What about the viability, T/C [10] of the same compound?
Answer: 99.3%
